Data: paper PMC11459959, “Discovery of new acetamide derivatives of 5-indole-1,3,4-oxadiazol-2-thiol as inhibitors of HIV-1 Tat-mediated viral transcription” (Antimicrobial Agents and Chemotherapy, 2024)
Like-named read-outs stand apart in the source and are kept apart here.

Columns and labels:
Assay type in all cases: cell-based
HIV-1NL4-3 [1] = assay: HIV-1 replication in PBMCs (p24 […]); conditions: for EC50: Human immunodeficiency virus 1, PBMC, 72 h
Method: (§1) The p24 level from the cell supernatant was subsequently determined using a p24 […] kit (PerkinElmer). In parallel, the cell viability was determined without viral infection because of the viral cytopathic effect. […] In parallel, cell viability was determined. The data (A and B) are presented as the mean ± SD (n = 3). (C) PBMCs (4 × 10^5) infected with HIV-AD8 at an MOI of 0.1 were treated with 1.5 µM of the compounds or ARVs for 3 days. The levels of p24 and cell viability were subsequently determined. (D) J1.1 cells were cultured with the compounds ([…]) under 50 ng/mL phorbol myristate acetate (PMA) treatment for 2 days. The level of p24 was subsequently determined. (E) J-Lat 6.3 cells were treated with the compounds (1.5 µM) under 1 µg/mL of PMA for 2 days. The GFP-positive cell population was analyzed using flow cytometry. The data are represented as a value relative to the DMSO-treated vehicle (D) and a percent of the GFP^+ cell population (E) as mean ± SD (n = 3).
(§2) The inhibitory effects of the compounds on viral replication were determined with some minor modifications, as previously described ([12], [62]). […] PBMCs (4 × 10^5) pre-activated with PHA-M for 3 days were washed with fresh media to remove excess PHA-M and subsequently infected with HIV-1NL4-3 or HIV-1AD8 or PIs-resistant HIV-1 strains as A3.01 infection. After infection, the infectious media were replaced with fresh media supplemented with international 10 units (IU)/mL of IL-2 and the indicated compounds. At 72 h after infection, the inhibitory effect of the compounds on viral replication was determined by measuring the p24 amount, an HIV capsid protein, using an HIV-1 p24 […] kit (PerkinElmer, Waltham, MA, USA). Cell viability was determined as described above. The inhibitory effects on provirus reversing in J1.1 and J-Lat 6.3 cells were determined as previously described ([12], [41], [63]) with some minor modifications. Briefly, 5 × 10^4 persistently HIV-1-infected J1.1 or J-Lat 6.3 cells were cultured in either the presence or absence of the compounds at a final concentration of 1.5 µM and treated with PMA (50 ng/mL for J1.1 cells, 1 µg/mL for J-Lat 6.3 cells). Two days after treatment, the levels of viral production were determined using p24 […] for J1.1 cells and flow cytometry analysis for GFP-expressing J-Lat 6.3 cells.

Cell viability of PBMCs = conditions: human
Method: as §1, §2

HIV-1NL4-3 [2] = assay: Time-of-addition assay in TZM-bl cells; conditions: HIV-1NL4-3 MOI 1, 9 and 13 1.5 μM, T-20 1 µM, triptolide 5 nM, ARVs 1 µM, F-Luc at 54 h
Method: Fig 5 (A) Time-of-addition assay. […] Subsequently, the cells were treated with the compounds at the indicated time points (0, 1, 2, 4, 6, 8, 10, 12, 24, 30, 36, 42, and 48 h) after HIV-1 infection. The final concentrations of compounds are described in Materials and Methods. Viral activity according to the timing of drug addition was measured as F-Luc activity at 54 h after infection. The relative activities are represented as the mean ± SD (n = 3) compared with the activity observed 54 h post-infection. The relative time frames associated with each HIV-1 infection step are defined based on the time frame of susceptibility to the drug that blocks that particular infection step. […] At 16 h after infection, the viral reverse transcription (RT) product (viral cDNA) level was determined by quantitative real-time PCR (RT-qPCR) using gag and 18S rRNA primer sets and represented as the mean ± SD (n = 3) normalized against the amount of the 18S rRNA compared with the DMSO control. **P < 0.01 compared with the vehicle (DMSO). (C) An in vitro integrase (IN) assay was performed with 10 µM of the indicated compounds following the manufacturer’s protocol. **P < 0.01 compared with vehicle (DMSO). (D) A3.01 cells were infected with HIV-1 upon treatment with the indicated compounds (5 µM) and ARVs (EFV and DTG) as the experimental controls. At 40 h after infection, cellular chromosomal DNA was purified, and the integrated proviral DNA was detected through nested Alu-PCR amplification.
A time-of-addition assay was performed as previously described ([25]) with minor modifications. […] Reference drug and test compounds were subsequently added at the indicated time (0, 1, 2, 4, 6, 8, 10, 12, 24, 30, 36, 42, and 48 h after infection). Final concentrations were as follows: compounds 9 and 13 (1.5 μM), T-20 (1 µM), Triptolide (5 nM), and ARVs (AZT, EFV, DTG, RAL) (1 µM). The viral activity according to the timing of drug addition was measured using a Bright Glo luciferase assay kit (Promega). Virus activity curves present a % activity relative to the activity observed at 54 h after infection, and the data are presented as the mean ± standard deviation (SD) (n = 3). The relative time frame associated with each HIV-1 infection step was defined based on the sensitivity to each drug that blocks a particular infection step.

[3] = Cell viability of TZM-bl cells (PrestoBlue); conditions: human
Method: The TZM-bl cells (also referred to as JC53BL-13) expressing human CD4, CXCR4, and CCR5 carrying the F-Luc and lacZ genes downstream of the HIV-1 LTR promoter ([60]) were used to determine the inhibitory effect of the compounds on HIV-1 infection, as previously described ([11], [12], [61]). In brief, 1 × 10^4 cells were cultured in 96-well plates for 24 h and subsequently treated with compounds at the indicated concentrations. Without replacement of the culture medium, the cells were subsequently infected with the HIV-1NL4-3 wild-type or ARV-resistant HIV-1 strains at an MOI of 1 to determine the exact inhibitory effect of compounds on a single-round infection. After 48 h, the inhibitory effect of the compounds was determined using a Bright Glo luciferase assay kit (Promega) or β-Galactosidase Enzyme Assay kit (Promega). The infectivity data were presented as a percentage relative to the dimethyl sulfoxide (DMSO) control (vehicle). Cell viability was determined using the resazurin-based PrestoBlue Cell Viability Reagent (Thermo Fisher Scientific, Waltham, MA, USA) following the manufacturer’s instructions.

[4] = HIV-1NL4-3 MOI 0.1, 3 days, p24, read-out: EC50
[5] = PBMCs, absence of HIV-1 infection, mean ± SD, read-out: CC50
[6] = HIV-1NL4-3 MOI 0.1, 3 days, p24, mean ± SD, read-out: EC50
[7] = Table S1, WT virus, 10-fold serial dilution, p24, 3 days, read-out: EC50

Row | Structure (SMILES) | SI (CC50/EC50) (HIV-1NL4-3 [1]) | EC50 (HIV-1NL4-3 [1]; [4]) [nM] | CC50 at 3 days (Cell viability of PBMCs; [5]) [nM] | time of administration after infection at which effectiveness began to decrease / was lost (HIV-1NL4-3 [2]) [h] | CC50 at 48 h ([3]; TZM-bl cells, absence of HIV-1 infection, mean ± SD, read-out: CC50) [nM] | CC50 at 3 days (Cell viability of PBMCs) [nM] | EC50 (HIV-1NL4-3 [1]; [6]) [nM] | EC50 (HIV-1NL4-3 [1]; [7]) [nM] | CC50 at 48 h [3] [nM]
1 | CC(C)[C@]12O[C@H]1[C@@H]1O[C@]13[C@]1(O[C@H]1C[C@H]1C4=C(CC[C@@]13C)C(=O)OC4)[C@@H]2O [triptolide, reference compound] | 11.23 | 16.9 ± 3.75 | 190 | 24 | 20 | – | – | – | –
2 | C[C@@H]1CCO[C@H]2Cn3cc(C(=O)NCc4ccc(F)cc4F)c(=O)c(O)c3C(=O)N12 [DTG, dolutegravir, reference compound] | >18,270 | < 1 | – | 10 | – | 18300 ± 580 | – | – | –
3 | Cc1[nH]c2ccc(-c3nnc(SCC(=O)N4CCCCC4)o3)cc2c1C [Compound 9, 2-((5-(2,3-Dimethyl-1H-indol-5-yl)-1,3,4-oxadiazol-2-yl)thio)-1-(piperidin-1-yl)ethan-1-one] | 315.14 | – | – | 24 | – | 44100 ± 3710 | 140 ± 10 | 100 | 63200 ± 5940
4 | O=C1Nc2ccc(Cl)cc2[C@@](C#CC2CC2)(C(F)(F)F)O1 [EFV, efavirenz, reference compound] | >29,460 | < 1 | 29500 ± 3620 | 8 | – | – | – | – | –
5 | Cc1[nH]c2ccc(-c3nnc(SCC(=O)N4CCCC4)o3)cc2c1C [Compound 13, 2-((5-(2,3-Dimethyl-1H-indol-5-yl)-1,3,4-oxadiazol-2-yl)thio)-1-(pyrrolidin-1-yl)ethan-1-one] | 282.81 | – | – | 24 | – | 45200 ± 5690 | 160 ± 20 | 100 ± 10 | 47100 ± 7720
